ChEMBL document CHEMBL3885881, “DrugMatrix”

Species: Rattus norvegicus
Test: DrugMatrix - Regimen: Daily Repeat
Format: toxicity, organism-based, Sprague-Dawley
Set-up: regimen Daily Repeat, gender Male, age 6-8 weeks
Settings: in vivo, sc, route subcutaneous, […]; for ABSOLUTE BASOPHIL / ABSOLUTE EOSINOPHIL / ABSOLUTE LYMPHOCYTE / ABSOLUTE MONOCYTE / ABSOLUTE SEGMENTED NEUTROPHIL / BASOPHIL / EOSINOPHIL / ERYTHROCYTE COUNT / HEMATOCRIT / HEMOGLOBIN / LEUKOCYTE COUNT / LYMPHOCYTE / MEAN CORPUSCULAR HEMOGLOBIN / MEAN CORPUSCULAR HEMOGLOBIN CONCENTRATION / MEAN CORPUSCULAR VOLUME / MONOCYTE / NEUTROPHIL / NUCLEATED RED BLOOD CELLS / PLATELET COUNT: tissue Blood; for ALANINE AMINOTRANSFERASE / ALBUMIN / ALKALINE PHOSPHATASE / ASPARTATE AMINOTRANSFERASE / BLOOD UREA NITROGEN / CARBON DIOXIDE / CHLORIDE / CHOLESTEROL / CREATINE PHOSPHOKINASE / CREATININE / GLUCOSE / LACTATE DEHYDROGENASE / LIPASE / PHOSPHORUS / POTASSIUM / SODIUM / TOTAL BILIRUBIN / TOTAL PROTEIN / URIC ACID: tissue Plasma
[1] = 7 mg/kg, 72 h, dose level High, time 3 day
[2] = 7 mg/kg, 120 h, dose level High, time 5 day
[3] = 72 h, dose 1.5 mg/Kg, dose level Low, time 3 day
[4] = 120 h, dose 1.5 mg/Kg, dose level Low, time 5 day

CC1=C(/C=C/C(C)=C/C=C/C(C)=C/C(=O)O)C(C)(C)CCC1 [TRETINOIN]
ABSOLUTE BASOPHIL [1]: 0 CELLS/uL
ABSOLUTE EOSINOPHIL [1]: 0 CELLS/uL
ABSOLUTE LYMPHOCYTE [1]: 16685.33 CELLS/uL
ABSOLUTE MONOCYTE [1]: 222.33 CELLS/uL
ABSOLUTE SEGMENTED NEUTROPHIL [1]: 2859 CELLS/uL
BASOPHIL [1]: 0%
EOSINOPHIL [1]: 0%
ERYTHROCYTE COUNT [1]: 5.42 x10E6/uL
HEMATOCRIT [1]: 34.57%
HEMOGLOBIN [1]: 12.7 G/DL
LEUKOCYTE COUNT [1]: 19.77 x10E3/uL
LYMPHOCYTE [1]: 84%
MEAN CORPUSCULAR HEMOGLOBIN [1]: 23.43 pg
MEAN CORPUSCULAR HEMOGLOBIN CONCENTRATION [1]: 36.73 G/DL
MEAN CORPUSCULAR VOLUME [1]: 63.77 fL
MONOCYTE [1]: 1%
NEUTROPHIL [1]: 15%
NUCLEATED RED BLOOD CELLS [1]: 0 /100WBC
PLATELET COUNT [1]: 1323.33 x10E3/uL
ALANINE AMINOTRANSFERASE [1]: 50 u/L
ALBUMIN [1]: 4.03 G/DL
ALKALINE PHOSPHATASE [1]: 328.67 u/L
ASPARTATE AMINOTRANSFERASE [1]: 77.33 u/L
BLOOD UREA NITROGEN [1]: 15.67 mg/dL
CARBON DIOXIDE [1]: 15 mmol/L
CHLORIDE [1]: 103.67 MEQ/L
CHOLESTEROL [1]: 79 mg/dL
CREATINE PHOSPHOKINASE [1]: 311.33 u/L
CREATININE [1]: 0.19 mg/dL
GLUCOSE [1]: 165.33 mg/dL
LACTATE DEHYDROGENASE [1]: 120.33 u/L
LIPASE [1]: 9.67 u/L
PHOSPHORUS [1]: 13.53 mg/dL
POTASSIUM [1]: 7.16 MEQ/L
SODIUM [1]: 147 MEQ/L
TOTAL BILIRUBIN [1]: 0.2 mg/dL
TOTAL PROTEIN [1]: 5.97 G/DL
URIC ACID [1]: 1.5 mg/dL
ABSOLUTE BASOPHIL [2]: 0 CELLS/uL
ABSOLUTE EOSINOPHIL [2]: 71.67 CELLS/uL
ABSOLUTE LYMPHOCYTE [2]: 17691.67 CELLS/uL
ABSOLUTE MONOCYTE [2]: 531.67 CELLS/uL
ABSOLUTE SEGMENTED NEUTROPHIL [2]: 3905 CELLS/uL
BASOPHIL [2]: 0%
EOSINOPHIL [2]: 0.33%
ERYTHROCYTE COUNT [2]: 5.84 x10E6/uL
HEMATOCRIT [2]: 36.1%
HEMOGLOBIN [2]: 13.37 G/DL
LEUKOCYTE COUNT [2]: 22.2 x10E3/uL
LYMPHOCYTE [2]: 79.67%
MEAN CORPUSCULAR HEMOGLOBIN [2]: 22.9 pg
MEAN CORPUSCULAR HEMOGLOBIN CONCENTRATION [2]: 37.03 G/DL
MEAN CORPUSCULAR VOLUME [2]: 61.8 fL
MONOCYTE [2]: 2.33%
NEUTROPHIL [2]: 17.67%
NUCLEATED RED BLOOD CELLS [2]: 0 /100WBC
PLATELET COUNT [2]: 1087.33 x10E3/uL
ALANINE AMINOTRANSFERASE [2]: 46.33 u/L
ALBUMIN [2]: 3.87 G/DL
ALKALINE PHOSPHATASE [2]: 319.67 u/L
ASPARTATE AMINOTRANSFERASE [2]: 88 u/L
BLOOD UREA NITROGEN [2]: 14.67 mg/dL
CARBON DIOXIDE [2]: 33.33 mmol/L
CHLORIDE [2]: 103.33 MEQ/L
CHOLESTEROL [2]: 75.67 mg/dL
CREATINE PHOSPHOKINASE [2]: 348 u/L
CREATININE [2]: 0.28 mg/dL
GLUCOSE [2]: 172.33 mg/dL
LACTATE DEHYDROGENASE [2]: 105.67 u/L
LIPASE [2]: 12 u/L
PHOSPHORUS [2]: 13.8 mg/dL
POTASSIUM [2]: 6.84 MEQ/L
SODIUM [2]: 147.23 MEQ/L
TOTAL BILIRUBIN [2]: 0.13 mg/dL
TOTAL PROTEIN [2]: 6.07 G/DL
URIC ACID [2]: 1.8 mg/dL
ABSOLUTE BASOPHIL [3]: 0 CELLS/uL
ABSOLUTE EOSINOPHIL [3]: 41.67 CELLS/uL
ABSOLUTE LYMPHOCYTE [3]: 10665.33 CELLS/uL
ABSOLUTE MONOCYTE [3]: 55.67 CELLS/uL
ABSOLUTE SEGMENTED NEUTROPHIL [3]: 2104 CELLS/uL
BASOPHIL [3]: 0%
EOSINOPHIL [3]: 0.33%
ERYTHROCYTE COUNT [3]: 4.74 x10E6/uL
HEMATOCRIT [3]: 30.27%
HEMOGLOBIN [3]: 11.93 G/DL
LEUKOCYTE COUNT [3]: 12.87 x10E3/uL
LYMPHOCYTE [3]: 83.67%
MEAN CORPUSCULAR HEMOGLOBIN [3]: 25.23 pg
MEAN CORPUSCULAR HEMOGLOBIN CONCENTRATION [3]: 39.47 G/DL
MEAN CORPUSCULAR VOLUME [3]: 63.87 fL
MONOCYTE [3]: 0.33%
NEUTROPHIL [3]: 15.67%
NUCLEATED RED BLOOD CELLS [3]: 0 /100WBC
PLATELET COUNT [3]: 1093.33 x10E3/uL
ALANINE AMINOTRANSFERASE [3]: 51 u/L
ALBUMIN [3]: 4.23 G/DL
ALKALINE PHOSPHATASE [3]: 460.67 u/L
ASPARTATE AMINOTRANSFERASE [3]: 100 u/L
BLOOD UREA NITROGEN [3]: 15.67 mg/dL
CARBON DIOXIDE [3]: 22.33 mmol/L
CHLORIDE [3]: 107.67 MEQ/L
CHOLESTEROL [3]: 98.33 mg/dL
CREATINE PHOSPHOKINASE [3]: 387.67 u/L
CREATININE [3]: 0.23 mg/dL
GLUCOSE [3]: 164.33 mg/dL
LACTATE DEHYDROGENASE [3]: 522.33 u/L
LIPASE [3]: 11.33 u/L
PHOSPHORUS [3]: 12.5 mg/dL
POTASSIUM [3]: 6.67 MEQ/L
SODIUM [3]: 150.27 MEQ/L
TOTAL BILIRUBIN [3]: 0.27 mg/dL
TOTAL PROTEIN [3]: 6.27 G/DL
URIC ACID [3]: 1.97 mg/dL
ABSOLUTE BASOPHIL [4]: 0 CELLS/uL
ABSOLUTE EOSINOPHIL [4]: 0 CELLS/uL
ABSOLUTE LYMPHOCYTE [4]: 9182.33 CELLS/uL
ABSOLUTE MONOCYTE [4]: 21 CELLS/uL
ABSOLUTE SEGMENTED NEUTROPHIL [4]: 1630 CELLS/uL
BASOPHIL [4]: 0%
EOSINOPHIL [4]: 0%
ERYTHROCYTE COUNT [4]: 5.54 x10E6/uL
HEMATOCRIT [4]: 34.87%
HEMOGLOBIN [4]: 12.9 G/DL
LEUKOCYTE COUNT [4]: 10.83 x10E3/uL
LYMPHOCYTE [4]: 85%
MEAN CORPUSCULAR HEMOGLOBIN [4]: 23.27 pg
MEAN CORPUSCULAR HEMOGLOBIN CONCENTRATION [4]: 37 G/DL
MEAN CORPUSCULAR VOLUME [4]: 62.9 fL
MONOCYTE [4]: 0.33%
NEUTROPHIL [4]: 14.67%
NUCLEATED RED BLOOD CELLS [4]: 0 /100WBC
PLATELET COUNT [4]: 981.67 x10E3/uL
ALANINE AMINOTRANSFERASE [4]: 52 u/L
ALBUMIN [4]: 3.9 G/DL
ALKALINE PHOSPHATASE [4]: 336.33 u/L
ASPARTATE AMINOTRANSFERASE [4]: 91 u/L
BLOOD UREA NITROGEN [4]: 16.33 mg/dL
CARBON DIOXIDE [4]: 24.33 mmol/L
CHLORIDE [4]: 107 MEQ/L
CHOLESTEROL [4]: 79 mg/dL
CREATINE PHOSPHOKINASE [4]: 270.33 u/L
CREATININE [4]: 0.17 mg/dL
GLUCOSE [4]: 180.33 mg/dL
LACTATE DEHYDROGENASE [4]: 147.67 u/L
LIPASE [4]: 10.33 u/L
PHOSPHORUS [4]: 14.17 mg/dL
POTASSIUM [4]: 6.48 MEQ/L
SODIUM [4]: 147.97 MEQ/L
TOTAL BILIRUBIN [4]: 0.23 mg/dL
TOTAL PROTEIN [4]: 6.07 G/DL
URIC ACID [4]: 2.07 mg/dL
